As usually defined, the IC50 is the midpoint of a concentration-inhibition curve.

Among the data in patent US11802127B2, “3,4-dihydro-2,7-naphthyridine-1,6(2H,7H)-diones as MEK inhibitors” (Pfizer Inc., priority 2021, dated 2023) are efflux ratio and IC50 values, retold here.

Molecules are shown by their SMILES.

One series addresses T1, BCRP (hBCRP) (Homo sapiens, UniProt Q9UNQ0).
T1 construct: expressed in transfected cells; host or cells: MDCKII (canine kidney) cells, canine P-gp knockout, transfected with BCRP
T1 sequence (Q9UNQ0 1-655): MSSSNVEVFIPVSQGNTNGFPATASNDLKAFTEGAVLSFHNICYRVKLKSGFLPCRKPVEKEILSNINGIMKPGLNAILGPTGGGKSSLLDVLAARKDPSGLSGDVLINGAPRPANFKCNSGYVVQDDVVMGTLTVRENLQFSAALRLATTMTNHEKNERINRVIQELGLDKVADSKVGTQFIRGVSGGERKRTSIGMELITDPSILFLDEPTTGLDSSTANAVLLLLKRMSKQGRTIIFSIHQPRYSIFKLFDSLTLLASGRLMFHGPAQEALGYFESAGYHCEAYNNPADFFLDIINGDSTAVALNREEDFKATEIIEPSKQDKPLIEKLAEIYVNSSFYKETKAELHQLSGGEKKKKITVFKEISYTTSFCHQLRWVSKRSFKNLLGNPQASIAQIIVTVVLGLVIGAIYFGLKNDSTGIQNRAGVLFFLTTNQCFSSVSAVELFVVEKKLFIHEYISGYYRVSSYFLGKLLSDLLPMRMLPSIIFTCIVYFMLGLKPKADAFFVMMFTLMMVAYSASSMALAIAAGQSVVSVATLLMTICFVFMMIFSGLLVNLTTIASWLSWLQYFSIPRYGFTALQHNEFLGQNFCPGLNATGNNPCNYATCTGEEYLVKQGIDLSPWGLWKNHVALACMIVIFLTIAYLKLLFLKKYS
Put plainly: Efflux ratio in BCRP transfected MDCKII canine P-gp knockout cells. In kind it is in vitro ADME. The conditions noted are these: Papp(B−A)/Papp(A−B), read-out: Efflux ratio MDCKII-hBCRP knock-in,canine pg-P KO. Summed up: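 Test article at 1 μM final (1% organic) in A→B and B→A directions across MDCKII P-gp knockout monolayers expressing BCRP, 2 h at 37° C., triplicate; lucifer yellow checked monolayer integrity. Concentrations by LC-MS/MS against labetalol internal standard; efflux ratio = Papp(B−A)/Papp(A−B).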

Series [1] concerns ERK1/2(Thr202/Tyr204) phosphorylation (MEK-dependent) in A375 cells. Put plainly: Cellular Phospho-p44/42 MAPK (Erk1/2) (Thr202/Tyr204) Assay. The following applies: Homo sapiens, A-375, 1-hour incubation, pERK1/2 (Thr202/Tyr204) In-Cell Western normalized to GAPDH. The series is classed as cell-based. Summed up: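 A375 cells exposed 1 h to 10-point 1:3 dilutions (top 20–1 μM, 0.5% DMSO), then fixed and stained for pERK1/2 (Thr202/Tyr204) by In-Cell Western. Signal normalized to GAPDH per well; DMSO and 1 μM reference inhibitor define 0 and 100% inhibition.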

As for `CSc1ccc(Nc2c3c(cc(=O)n2C)CCN(OCCO)C3=O)c(F)c1` [Example 6, 8-((2-fluoro-4-(methylthio)phenyl)amino)-2-(2-hydroxyethoxy)-7-methyl-3,4-dihydro-2,7-naphthyridine-1,6(2H,7H)-dione], the efflux ratio at 2 h, 1 μM on BCRP (hBCRP) amounted to 5.5. In series [1], this molecule returned an IC50 of 8 nM.

Turning to `Cn1c(Nc2ccc(Br)cc2F)c2c(cc1=O)CCN(OCCO)C2=O` [Example 7, 8-((4-bromo-2-fluorophenyl)amino)-2-(2-hydroxyethoxy)-7-methyl-3,4-dihydro-2,7-naphthyridine-1,6(2H,7H)-dione], the efflux ratio at 2 h, 1 μM on BCRP (hBCRP) was 9.6. Also, the IC50 in series [1] was 23 nM.

On to `Cn1c(Nc2ccc(I)cc2F)c2c(cc1=O)CCN(OCCO)C2=O` [Example 8, 8-((2-fluoro-4-iodophenol)amino)-2-(2-hydroxyethoxy)-7-methyl-3,4-dihydro-2,7-naphthyridine-1,6(2H,7H)-dione], for which, on BCRP (hBCRP), the efflux ratio at 2 h, 1 μM came to 3.4. Moreover, in series [1], it took 1 nM to reach half-maximal inhibition (IC50).

With `CCc1ccc(Nc2c3c(cc(=O)n2C)CCN(OCCO)C3=O)c(F)c1` [Example 14, 8-((4-ethyl-2-fluorophenyl)amino)-2-(2-hydroxyethoxy)-7-methyl-3,4-dihydro-2,7-naphthyridine-1,6(2H,7H)-dione], the efflux ratio at 2 h, 1 μM at BCRP (hBCRP) turned out to be 3.4. Besides, the IC50 in series [1] was 15 nM.

Turning to `Cn1c(Nc2ccc(OC(F)F)cc2F)c2c(cc1=O)CCN(OCCO)C2=O` [Example 22, 8-((4-(difluoromethoxy)-2-fluorophenyl)amino)-2-(2-hydroxyethoxy)-7-methyl-3,4-dihydro-2,7-naphthyridine-1,6(2H,7H)-dione], the efflux ratio at 2 h, 1 μM on BCRP (hBCRP) was determined as 9. The molecule also showed an IC50 in series [1] of 21 nM.

On to `Cc1c2c(c(Nc3ccc(Br)cc3F)n(C)c1=O)C(=O)N(OCCO)CC2` [Example 36, 8-((4-bromo-2-fluorophenyl)amino)-2-(2-hydroxyethoxy)-5,7-dimethyl-3,4-dihydro-2,7-naphthyridine-1,6(2H,7H)-dione], for which the efflux ratio at 2 h, 1 μM on BCRP (hBCRP) amounted to 3.5. The molecule also showed an IC50 in series [1] of 30 nM.
